# Assay results published in patent US9717748B2, “Compositions and methods for treating an infection” (CMPD LICENSING, LLC, priority 2015, dated 2017).
# How the values were obtained:
# Cryptococcus neoformans = assay: Expected efficacy of antifungal agents
# Aspergillus flavus = assay: Expected efficacy of antifungal agents
# Aspergillus fumigatus = assay: Expected efficacy of antifungal agents
# [1] = system: Trichophyton mentagrophytes; assay: Expected efficacy of antifungal agents
# Leishmania infantum = assay: Expected efficacy of antifungal agents
# Pseudomonas aeruginosa = assay: Expected efficacy of antibiotic agents; conditions: Gram: neg
# Mycoplasma pneumoniae = assay: Expected efficacy of antibiotic agents; conditions: Gram: n/a
# [2] = system: Staphylococcus epidermidis; assay: Expected efficacy of antibiotic agents; conditions: Gram: pos
# Corynebacterium jeikeium = assay: Expected efficacy of antibiotic agents; conditions: Gram: pos
# Clostridium perfringens = conditions: Gram: anaer
# Haemophilus ducreyi = assay: Expected efficacy of antibiotic agents; conditions: Gram: neg
# Enterobacter sakazakii = assay: Expected efficacy of antibiotic agents; conditions: Gram: neg
# Peptostreptococcus = assay: Expected efficacy of antibiotic agents; conditions: Gram: pos
# Diphtheroids = assay: Expected efficacy of antibiotic agents; conditions: Gram: pos
# Shigella flexneri = assay: Expected efficacy of antibiotic agents; conditions: Gram: neg
# Bordetella pertussis = assay: Expected efficacy of antibiotic agents; conditions: Gram: neg
# Shigella dysenteriae = assay: Expected efficacy of antibiotic agents; conditions: Gram: neg
# Shigella sonnei = assay: Expected efficacy of antibiotic agents; conditions: Gram: neg
# Yersinia pestis = conditions: Gram: neg
# Clostridium difficile = assay: Expected efficacy of antibiotic agents; conditions: Gram: anaer
# [3] = system: Klebsiella (Calymmato-bacterium) granulomatis; assay: Expected efficacy of antibiotic agents; conditions: Gram: neg
# Streptococcus agalactiae = assay: Expected efficacy of antibiotic agents; conditions: Gram: pos
# Streptococcus pneumoniae = assay: Expected efficacy of antibiotic agents; conditions: Gram: pos
# Legionella pneumophila = conditions: Gram: neg
# Streptococcus pyogenes = assay: Expected efficacy of antibiotic agents; conditions: Gram: pos
# Enterococcus faecium = assay: Expected efficacy of antibiotic agents; conditions: Gram: pos
# Citrobacter freundii = assay: Expected efficacy of antibiotic agents; conditions: Gram: neg
# [4] = system: Methicillin resistant staphaureus (MRSA); assay: Expected efficacy of antibiotic agents; conditions: Gram: pos
# [5] = system: Corynebacterium urealyticum; assay: Expected efficacy of antibiotic agents; conditions: Gram: pos
# Neisseria gonorrhoeae = assay: Expected efficacy of antibiotic agents; conditions: Gram: neg
# [6] = system: Acinetobacter calcoaceticus; assay: Expected efficacy of antibiotic agents; conditions: Gram: neg
# Enterobacter cloacae = assay: Expected efficacy of antibiotic agents; conditions: Gram: neg
# Acinetobacter baumannii = assay: Expected efficacy of antibiotic agents; conditions: Gram: neg
# Vibrio cholerae = assay: Expected efficacy of antibiotic agents; conditions: Gram: neg
# [7] = system: Staphylococcus aureus (MSSA); assay: Expected efficacy of antibiotic agents; conditions: Gram: pos
# Proteus mirabilis = assay: Expected efficacy of antibiotic agents; conditions: Gram: neg
# Enterococcus faecalis = assay: Expected efficacy of antibiotic agents; conditions: Gram: pos
# Acinetobacter lwoffii = assay: Expected efficacy of antibiotic agents; conditions: Gram: neg
# Bacteroides fragilis = assay: Expected efficacy of antibiotic agents; conditions: Gram: anaer
# Chlamydia pneumoniae = assay: Expected efficacy of antibiotic agents; conditions: Gram: n/a
# Campylobacter jejuni = assay: Expected efficacy of antibiotic agents; conditions: Gram: neg
# Klebsiella pneumoniae = assay: Expected efficacy of antibiotic agents; conditions: Gram: neg
# Chlamydia trachomatis = assay: Expected efficacy of antibiotic agents; conditions: Gram: n/a
# Chlamydia psittaci = conditions: Gram: n/a
# [8] = system: Viridans group streptococci; assay: Expected efficacy of antibiotic agents; conditions: Gram: pos
# Moraxella catarrhalis = assay: Expected efficacy of antibiotic agents; conditions: Gram: neg
# Neisseria meningitidis = assay: Expected efficacy of antibiotic agents; conditions: Gram: neg
# Scedosporium apiospermum = assay: Expected efficacy of antifungal agents
smiles,measurement,setting,value
CCC(C)n1ncn(-c2ccc(N3CCN(c4ccc(OC[C@H]5CO[C@](Cn6cncn6)(c6ccc(Cl)cc6Cl)O5)cc4)CC3)cc2)c1=O (mixture of isomers) [Itraconazole],Expected efficacy against Coccidioides immitis,Coccidioides immitis,yes
same,Expected efficacy against Cryptococcus neoformans,Cryptococcus neoformans,yes
same,Expected efficacy against Aspergillus flavus,Aspergillus flavus,yes
same,Expected efficacy against Aspergillus fumigatus,Aspergillus fumigatus,yes
same,Expected efficacy against Trichophyton mentagrophytes,[1],yes
C[C@@H]1[C@H](O)[C@@H](C)/C=C/C=C/C=C/C=C/C=C/C=C/C=C/[C@H](O[C@@H]2O[C@H](C)[C@@H](O)[C@H](N)[C@@H]2O)C[C@@H]2O[C@](O)(C[C@@H](O)C[C@@H](O)[C@H](O)CC[C@@H](O)C[C@@H](O)CC(=O)O[C@H]1C)C[C@H](O)[C@H]2C(=O)O [Amphotericin],Expected efficacy against Coccidioides immitis,Coccidioides immitis,yes
same,Expected efficacy against Cryptococcus neoformans,Cryptococcus neoformans,yes
same,Expected efficacy against Leishmania infantum,Leishmania infantum,yes
same,Expected efficacy against Aspergillus flavus,Aspergillus flavus,yes
same,Expected efficacy against Aspergillus fumigatus,Aspergillus fumigatus,yes
NC[C@H]1O[C@H](O[C@H]2[C@H](O)[C@@H](O[C@H]3O[C@H](CO)[C@@H](O)[C@H](N)[C@H]3O)[C@H](N)C[C@@H]2N)[C@H](N)C[C@@H]1O [Tobramycin],Expected efficacy against Pseudomonas aeruginosa,Pseudomonas aeruginosa,yes
same,Expected efficacy against Mycoplasma pneumoniae,Mycoplasma pneumoniae,no
same,Expected efficacy against Staphylococcus epidermidis,[2],no
same,Expected efficacy against Corynebacterium jeikeium,Corynebacterium jeikeium,no
same,Expected efficacy against Clostridium perfringens,Clostridium perfringens,no
same,Expected efficacy against Haemophilus ducreyi,Haemophilus ducreyi,yes
same,Expected efficacy against Enterobacter sakazakii,Enterobacter sakazakii,yes
same,Expected efficacy against Peptostreptococcus,Peptostreptococcus,no
same,Expected efficacy against Diphtheroids,Diphtheroids,no
same,Expected efficacy against Shigella flexneri,Shigella flexneri,yes
same,Expected efficacy against Bordetella pertussis,Bordetella pertussis,no
same,Expected efficacy against Shigella dysenteriae,Shigella dysenteriae,yes
same,Expected efficacy against Shigella sonnei,Shigella sonnei,yes
same,Expected efficacy against Yersinia pestis,Yersinia pestis,yes
same,Expected efficacy against Clostridium difficile,Clostridium difficile,no
same,Expected efficacy against Klebsiella (Calymmato-bacterium) granulomatis,[3],yes
same,Expected efficacy against Streptococcus agalactiae,Streptococcus agalactiae,no
same,Expected efficacy against Streptococcus pneumoniae,Streptococcus pneumoniae,no
same,Expected efficacy against Legionella pneumophila,Legionella pneumophila,no
same,Expected efficacy against Streptococcus pyogenes,Streptococcus pyogenes,no
same,Expected efficacy against Enterococcus faecium,Enterococcus faecium,no
same,Expected efficacy against Citrobacter freundii,Citrobacter freundii,yes
same,Expected efficacy against Methicillin resistant staphaureus (MRSA),[4],no
same,Expected efficacy against Corynebacterium urealyticum,[5],no
same,Expected efficacy against Neisseria gonorrhoeae,Neisseria gonorrhoeae,no
same,Expected efficacy against Acinetobacter calcoaceticus,[6],no
same,Expected efficacy against Enterobacter cloacae,Enterobacter cloacae,yes
same,Expected efficacy against Acinetobacter baumannii,Acinetobacter baumannii,no
same,Expected efficacy against Vibrio cholerae,Vibrio cholerae,no
same,Expected efficacy against Staphylococcus aureus (MSSA),[7],no
same,Expected efficacy against Proteus mirabilis,Proteus mirabilis,yes
same,Expected efficacy against Enterococcus faecalis,Enterococcus faecalis,no
same,Expected efficacy against Acinetobacter lwoffii,Acinetobacter lwoffii,no
same,Expected efficacy against Bacteroides fragilis,Bacteroides fragilis,no
same,Expected efficacy against Chlamydia pneumoniae,Chlamydia pneumoniae,no
same,Expected efficacy against Campylobacter jejuni,Campylobacter jejuni,yes
same,Expected efficacy against Klebsiella pneumoniae,Klebsiella pneumoniae,yes
same,Expected efficacy against Chlamydia trachomatis,Chlamydia trachomatis,no
same,Expected efficacy against Chlamydia psittaci,Chlamydia psittaci,no
same,Expected efficacy against Viridans group streptococci,[8],no
same,Expected efficacy against Moraxella catarrhalis,Moraxella catarrhalis,yes
same,Expected efficacy against Neisseria meningitidis,Neisseria meningitidis,no
C[C@@H](c1ncncc1F)[C@](O)(Cn1cncn1)c1ccc(F)cc1F [Voriconazole],Expected efficacy against Scedosporium apiospermum,Scedosporium apiospermum,yes
same,Expected efficacy against Aspergillus flavus,Aspergillus flavus,yes
same,Expected efficacy against Aspergillus fumigatus,Aspergillus fumigatus,yes
